# Assays:
# [1] = system: diabetic neuropathic rats; assay: Streptozotocin diabetic neuropathic pain model (Example 1): noxious electrical current, tail flick latency, paw pressure; assay type: in vivo, rat
# [2] = system: diabetic neuropathic male Wistar rats; assay: Paw pressure (Randall Selitto) anti-nociception in rats with diabetic neuropathy (Example 2); assay type: in vivo, rat
# [3] = system: Male Wistar rats; assay: Sedation: resting time in open field activity monitor; assay type: in vivo, rat
# [4] = system: rats with experimental insulin-dependent diabetes mellitus; details: intravenous morphine; diabetic rats; cited from earlier work
smiles,measurement,setting,value
"CC(=O)OCC(=O)[C@H]1CC[C@H]2[C@@H]3CC[C@H]4C[C@H](O)CC[C@]4(C)[C@H]3C(=O)C[C@]12C [alphadolone acetate, 21-acetoxy-3α-hydroxy-5α-pregnane-11,20-dione]","anti-nociceptive action in diabetic neuropathic pain (ECT, TFL, paw pressure)",[1]; alphadolone acetate 6 mg/kg ip given alone,minimally responsive
same,anti-nociception to paw pressure,[2]; alphadolone acetate 1.0 mg/kg given alone,ineffective
same,reversal of the allodynia and hyperalgesia to paw pressure,"[2]; alphadolone acetate 10 mg/kg intraperitoneally (maximum dose), given alone",80%
same,"anti-nociceptive effects, dose response","[2]; alphadolone acetate given alone intraperitoneally, FIG. 9",dose related anti-nociceptive effects
same,potency in rats with diabetic neuropathy compared with normal weight matched rats,"[2]; alphadolone acetate given alone, the two dose response curves overlay each other",same potency
same,resting times compared with saline controls,[3]; alphadolone acetate 60 mg/kg intraperitoneally,decreased resting times
same,resting times compared with saline controls,"[3]; alphadolone acetate doses less than 100 mg/kg intraperitoneally, 30 minutes",did not increase resting times
CN1CC[C@]23c4c5ccc(O)c4O[C@H]2[C@@H](O)C=C[C@H]3[C@H]1C5 [morphine],doses inducing dose-dependent anti-nociceptive effect relative to normal rats,[4],twice as high
"COc1ccc2c3c1O[C@H]1C(=O)CC[C@@]4(O)[C@@H](C2)N(C)CC[C@]314 [oxycodone, reference compound]","anti-nociceptive action in diabetic neuropathic pain (ECT, TFL, paw pressure)",[1]; oxycodone 250 μg/kg given alone,minimally responsive
same,resting times compared with saline controls,[3]; oxycodone 0.25 and 0.125 mg/kg intraperitoneally,decreased resting times
same,resting times compared with saline controls,"[3]; oxycodone doses less than 1.0 mg/kg intraperitoneally, 30 minutes",did not increase resting times

# Source: patent publication US20080227764A1 (published 2008)
